Laboratory results published in patent US12357665B2, “Pharmaceutical compositions and uses thereof in treating muscle atrophy” (Tzung-Yan, priority 2020, dated 2025).

What was measured:
Assay type in all cases: in vivo, mouse (C57BL/6J)
[1] = test system: mTOR/insulin signaling pathway (IGF1R, IRS1, PI3K, AKT, mTOR, S6K, 4EBP1); assay: Sucrose-induced aging mice: mTOR/insulin signaling pathway in muscle tissues, Western blot (Example 2); settings: once per day day 17-30, ATG-125 60 mg/kg topical, 4-OHT 1 mg/kg intraperitoneal, FIGS. 4A and 4B
Description: (§1) Male C57BL/6J (6 and 18 months) mice were fed standard chow and water ad libitum, and housed under conditions of control temperature (26° C.) and illumination (12-hour light/dark cycle). […]
(§2) Muscle tissues were harvested immediately from the mice after they were sacrificed, followed by flash frozen in liquid nitrogen and stored at −80° C. Proteins were extracted from muscle tissues with distilled water containing protease inhibitors, and each protein concentration was determined by protein assay kits. Protein (50 μg) was analyzed on a 10% sodium dodecyl sulfate polyacrylamide gel electrophoresis (SDS-PAGE), and transferred to a polyvinylidene difluoride (PVDF) membrane. […] The optical densities of the bands were quantified using software. […]

[2] = test system: muscle tissues of aging mice fed with sucrose; assay: Sucrose-induced muscle atrophy in aging mice, topical administration: histology and muscle atrophy-associated molecules (Example 1); settings: once per day day 17-30, ATG-125 60 mg/kg topical, 4-OHT 1 mg/kg intraperitoneal
Description: as §1, §2

[3] = test system: mitochondrial biogenesis mediators (SIRT1, PGC1α, NRF1, TFAM, UCP1, UCP2, UCP3); assay: Sucrose-induced aging mice: mitochondrial molecules in muscle tissues, mRNA and protein (Example 3); settings: once per day day 17-30, ATG-125 60 mg/kg topical, 4-OHT 1 mg/kg intraperitoneal, FIGS. 5 and 6
Description: as §1, §2

[4] = test system: muscle tissues of sucrose and MPTP-induced aging mice; assay: Sucrose and MPTP-induced muscle atrophy in aging mice, oral administration: histology, atrogin-1 and klotho mRNA (Example 4); settings: once per day day 17-30, ATG-125 60 mg/kg oral, selegiline 1 mg/kg intraperitoneal, FIG. 7
Description: as §1
Total RNA was isolated from 0.2 g of muscle tissues using RNA extraction kit. For qRT-PCR (real-time reverse transcription-PCR), equal amounts of RNA were retro-transcribed to cDNA using cDNA reverse transcription kit according to the manufacturer's instruction. atrogin-1, klotho, mitochondrial transcription factor A (TFAM), SIRT1, PGC1α, nuclear respiratory factor 1 (NRF1), UCP1, and UCP2 mRNA expressions were evaluated using the SYBR® Green PCR master mix. Relative expression was calculated using the ΔΔCt method with normalization to constitutive genes. […]

[5] = test system: mitochondrial biogenesis mediators (SIRT1, PGC1α, NRF1, TFAM, UCP1, UCP2); assay: Sucrose and MPTP-induced aging mice: mitochondrial molecules mRNA in muscle tissues (Example 5); settings: once per day day 17-30, ATG-125 60 mg/kg oral, selegiline 1 mg/kg intraperitoneal, FIG. 8
Description: as §1
Total RNA was isolated from 0.2 g of muscle tissues using RNA extraction kit. For qRT-PCR (real-time reverse transcription-PCR), equal amounts of RNA were retro-transcribed to cDNA using cDNA reverse transcription kit according to the manufacturer's instruction. atrogin-1, klotho, mitochondrial transcription factor A (TFAM), SIRT1, PGC1α, nuclear respiratory factor 1 (NRF1), UCP1, and UCP2 mRNA expressions were evaluated using the SYBR® Green PCR master mix. Relative expression was calculated using the ΔΔCt method with normalization to constitutive genes.
Mitochondria play an essential role in energy production, redox homeostasis, and the regulation of cell death pathways. […] Thus, whether ATG-125 solution improves the mitochondrial function in the animal having muscle atrophy was evaluated in this example, and the results were respectively depicted in FIG. 8.

Molecule | phosphorylated levels (activations) of mTOR/insulin signaling molecules (pIGF1R, pIRS1, pPI3K, pAKT, pmTOR, pS6K, p4EBP1) [1] | adverse effect of sucrose on muscle tissues (protein levels of pAMPK, FOXO3a, MuRF1, lipofuscin; mRNA levels of Atrogin-1 and Klotho) ([2]; FIGS. 1 to 3) | levels of adipocytes and degenerated myofibers in muscles ([2]; H&E, FIG. 1) | expression levels of mitochondrial biogenesis mediators (mRNA SIRT1, PGC1α, NRF1, TFAM, UCP1, UCP2; protein SIRT1, PGC1α, UCP1, UCP2, UCP3) in muscle tissues [3] | adverse effect of sucrose and MPTP on muscle tissues (mRNA levels of Atrogin-1 and Klotho) [4] | levels of degenerated myofibers in muscles ([4]; H&E) | expression levels of mitochondrial biogenesis mediators (mRNA SIRT1, PGC1α, NRF1, TFAM, UCP1, UCP2) in muscle tissues [5]
4-hydroxytamoxifen [4-OHT] | enhanced | significantly reversed | decreased | increased |  |  | 
C#CCN(C)[C@H](C)Cc1ccccc1 [selegiline] |  |  |  |  | significantly reversed | decreased | increased
